Measurements taken from ChEMBL document CHEMBL4000198, “Triterpene saponins and megastigmane glucosides from Camellia bugiamapensis” (Bioorg Med Chem Lett, 2017).

How the values were obtained:
RAW264.7 [1] = assay: Cytotoxicity against mouse RAW264.7 cells by MTT assay; format: cell-based
RAW264.7 [2] = assay: Inhibition of LPS-induced NO production in mouse RAW264.7 cells pretreated for 30 mins followed by LPS challenge measured after 24 hrs by Griess assay; format: functional, cell-based
RAW264.7 [3] = assay: Inhibition of LPS-induced NO production in mouse RAW264.7 cells pretreated for 30 mins followed by LPS challenge measured after 12 hrs by Griess assay; format: functional, cell-based

| SMILES | Activity (RAW264.7 [1]) | IC50 (RAW264.7 [2]) [µM] | IC50 (RAW264.7 [3]) [µM] |
| --- | --- | --- | --- |
| COC(=O)[C@H]1O[C@@H](O[C@H]2CC[C@]3(C)[C@H]4CC=C5[C@@H]6CC(C)(C)CC[C@]6(CO)[C@H](O)C[C@@]5(C)[C@]4(C)CC[C@H]3C2(C)C)[C@H](O[C@@H]2O[C@@H](C)[C@H](O)[C@@H](O)[C@H]2O)[C@@H](O)[C@@H]1O | Non-Toxic | 49.4 |  |
| COc1cc(O)cc(O)c1C(=O)/C=C/c1ccccc1 [CARDAMOMIN] |  |  | 2.2 |
